# Experimental data from US4900672A, “Method for preservation of nitrile hydration activity” (Nitto Kagaku Kogyo Kabushiki Kaisha, priority 1986, dated 1990).
# Where two headings read alike, the source gives them in different places.
# Target: T1, nitrile hydratase (Pseudomonas chlororaphis, UniProt P27763+P27764)
# T1 sequence (P27764 1-200): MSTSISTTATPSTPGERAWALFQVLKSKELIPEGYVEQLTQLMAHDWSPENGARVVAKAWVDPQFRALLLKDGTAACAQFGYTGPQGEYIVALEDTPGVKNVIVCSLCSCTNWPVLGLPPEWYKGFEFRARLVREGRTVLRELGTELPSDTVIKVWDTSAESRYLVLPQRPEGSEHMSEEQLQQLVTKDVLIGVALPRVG
# T1 sequence (P27763 1-220): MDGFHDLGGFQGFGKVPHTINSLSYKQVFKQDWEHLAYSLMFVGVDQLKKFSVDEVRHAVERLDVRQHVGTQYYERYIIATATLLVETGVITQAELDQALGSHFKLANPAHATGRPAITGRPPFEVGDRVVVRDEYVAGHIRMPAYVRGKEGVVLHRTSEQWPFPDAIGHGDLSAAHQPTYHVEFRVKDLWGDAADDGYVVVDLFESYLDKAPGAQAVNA
# Experiment: Preservation of nitrile hydration activity of washed cell suspension left standing ice-cooled with stabilizer
# Assay type: cell-based, Pseudomonas chlororaphis B23 (FERM BP-187)
# [1] = 120 h; Table 2; 10 mg amide in 5 ml cell suspension, pH 6.5, left standing 5 days ice-cooled; no stabilizer: 42; read-out: % Residual Activity
# [2] = 120 h; Table 1; 10 mg nitrile in 5 ml cell suspension, pH 6.5, left standing 5 days ice-cooled; no stabilizer: 42; read-out: % Residual Activity
# [3] = 120 h, pH 6, read-out: % Residual Activity
# [4] = 120 h; Table 3; 10 mg organic acid in 5 ml cell suspension, pH 6.0, left standing 5 days ice-cooled; no stabilizer: 43; read-out: % Residual Activity
# [5] = 96 h, pH 5.5, read-out: % Residual Activity
# [6] = 96 h; Table 4; pH 5.0, 25 mg stabilizer in 5 ml, 4 days ice-cooled; no stabilizer: 2; read-out: % Residual Activity
# [7] = 96 h; Table 4; pH 6.0, 25 mg stabilizer in 5 ml, 4 days ice-cooled; no stabilizer: 41; read-out: % Residual Activity
# [8] = 96 h; Table 4; pH 6.5, 25 mg stabilizer in 5 ml, 4 days ice-cooled; no stabilizer: 52; read-out: % Residual Activity
# [9] = 96 h; Table 4; pH 8.0, 25 mg stabilizer in 5 ml, 4 days ice-cooled; no stabilizer: 26; read-out: % Residual Activity
# [10] = Table 5; stabilizer concentration 0.01 g/l, pH 6.0, 3 days ice-cooled; no stabilizer (pH 6.5): 52; read-out: % Residual Activity
# [11] = pH 6, read-out: % Residual Activity
# [12] = 120 h, pH 6.5, read-out: % Residual Activity
# [13] = 96 h, pH 7, read-out: % Residual Activity
smiles,measurement,setting,value
NC(=O)CCC(N)=O [Succindiamide],activity at 10 mg,[1],68%
N#Cc1ccccc1 [Benzonitrile],activity at 10 mg,[2],70%
CCC(N)=O [Propionamide],activity at 10 mg,[1],93%
CCC(=O)O [Propionic acid],activity at 10 mg,[3],93%
O=CC(=O)O [Glyoxylic acid],activity at 10 mg,[4],88%
N#CCC(=O)O [Cyanoacetic acid],activity at 10 mg,[2],69%
O=C(O)CC(O)C(=O)O (stereo not shown) [Malic acid],activity at 10 mg,[4],81%
O=C(O)C(O)CO (racemic) [DL-Glyceric acid],activity at 10 mg,[4],87%
N#CCCC#N [Succiononitrile],activity at 10 mg,[2],81%
O=C(O)CC(=O)C(=O)O [Oxalacetic acid],activity at 10 mg,[4],83%
CC(C)C#N [Isobutyronitrile],activity at 25 mg,[5],98%
same,activity at 25 mg,[6],5%
same,activity at 25 mg,[7],97%
same,activity at 25 mg,[8],85%
same,activity at 25 mg,"96 h; Table 4; pH 7.0, 25 mg stabilizer in 5 ml, 4 days ice-cooled; no stabilizer: 43; read-out: % Residual Activity",80%
same,activity at 25 mg,[9],53%
same,activity at 10 mg,[2],95%
same,remaining activity at 10 µg/mL,[10],78%
same,remaining activity at 100 µg/mL,[11],85%
same,remaining activity at 1000 µg/mL,[11],98%
same,remaining activity at 5000 µg/mL,[11],100%
same,remaining activity at 20000 µg/mL,[11],91%
N#CCCl [Chloroacetonitrile],activity at 10 mg,[2],77%
CCCCC(N)=O [n-Valeramide],activity at 10 mg,[1],94%
CCCC#N [n-Butyronitrile],activity at 10 mg,[2],88%
CC(O)C#N (stereo not shown) [Lactonitrile],activity at 10 mg,[2],73%
O=C(O)CC(=O)O [Malonic acid],activity at 10 mg,[4],63%
NC(=O)CCl [Chloroacetamide],activity at 10 mg,[12],71%
O=C(O)CCC(=O)O [Succinic acid],activity at 10 mg,[3],80%
CC(C)C(N)=O [Isobutyramide],activity at 25 mg,[13],78%
same,activity at 25 mg,[6],3%
same,activity at 25 mg,"96 h; Table 4; pH 5.5, 25 mg stabilizer in 5 ml, 4 days ice-cooled; no stabilizer: 32; read-out: % Residual Activity",100%
same,activity at 25 mg,[7],100%
same,activity at 25 mg,[8],87%
same,activity at 25 mg,[9],52%
same,activity at 10 mg,[12],99%
same,remaining activity at 10 µg/mL,[10],82%
same,remaining activity at 100 µg/mL,"Table 5; stabilizer concentration 0.1 g/l, pH 6.0, 3 days ice-cooled; read-out: % Residual Activity",88%
same,remaining activity at 1000 µg/mL,"Table 5; stabilizer concentration 1.0 g/l, pH 6.0, 3 days ice-cooled; read-out: % Residual Activity",100%
same,remaining activity at 5000 µg/mL,"Table 5; stabilizer concentration 5.0 g/l, pH 6.0, 3 days ice-cooled; read-out: % Residual Activity",100%
same,remaining activity at 20000 µg/mL,"Table 5; stabilizer concentration 20 g/l, pH 6.0, 3 days ice-cooled; read-out: % Residual Activity",100%
same,remaining activity at 50000 µg/mL,"Table 5; stabilizer concentration 50 g/l, pH 6.0, 3 days ice-cooled; read-out: % Residual Activity",90%
N#CCCCCC#N [Adiponitrile],activity at 10 mg,[2],84%
N#CCCCl [β-Chloropropionitrile],activity at 10 mg,[2],80%
CCCCCC(=O)O [Caproic acid],activity at 10 mg,[4],83%
C=CC#N [Acrylonitrile],activity at 10 mg,[2],71%
CC(=O)O [Acetic acid],activity at 10 mg,[3],77%
O=C(O)/C=C/C(=O)O [Fumaric acid],activity at 10 mg,[3],82%
CCCC(N)=O [n-Butyramide],activity at 10 mg,[1],89%
CCCCC#N [n-Valeronitrile],activity at 10 mg,[2],93%
N#CCC(N)=O [Cyanoacetamide],activity at 10 mg,[2],75%
O=C(O)c1ccccc1 [Benzoic acid],activity at 10 mg,[4],68%
NCCC(N)=O [β-Aminopropionamide],activity at 10 mg,[1],68%
NC(=O)CCO [β-Hydroxypropionamide],activity at 10 mg,[1],74%
O=C(O)CCl [Monochloroacetic acid],activity at 10 mg,[4],70%
CCC#N [Propionitrile],activity at 10 mg,[2],90%
NC(=O)CC(N)=O [Malondiamide],activity at 10 mg,[1],66%
CC#N [Acetonitrile],activity at 10 mg,[12],71%
NC(=O)c1ccccc1 [Benzamide],activity at 10 mg,[1],65%
CC(N)=O [Acetamide],activity at 10 mg,[1],67%
NCCC(=O)O [β-Aminopropionic acid],activity at 10 mg,[3],71%
CCCCCC#N [n-Capronitrile],activity at 10 mg,[2],89%
CC(O)C(N)=O (stereo not shown) [Lactamide],activity at 10 mg,[1],70%
O=C(O)CC(O)(CC(=O)O)C(=O)O [Citric acid],activity at 10 mg,[4],77%
C=C(C)C(=O)O [Methacrylic acid],activity at 10 mg,[4],81%
CCCCCC(N)=O [n-Capronamide],activity at 10 mg,[1],88%
N#CCC#N [Malononitrile],activity at 10 mg,"120 h, pH 6.5; read-out: % Residual Activity",69%
N#Cc1cccnc1 [Nicotinonitrile],activity at 10 mg,[2],73%
CCCCC(=O)O [Valeric acid],activity at 10 mg,[3],84%
N#CCN [Glycine nitrile],activity at 10 mg,[2],68%
NC(=O)c1cccnc1 [Nicotinamide],activity at 10 mg,[1],59%
NCC(N)=O [Glycine amide],activity at 10 mg,[1],63%
C=CC(=O)O [Acrylic acid],activity at 10 mg,[4],70%
O=C(O)CO [Glycolic acid],activity at 10 mg,[4],77%
N#CCCN [β-Aminopropionitrile],activity at 10 mg,[2],70%
CC(C)C(=O)O [Isobutyric acid],activity at 25 mg,"96 h, pH 5, read-out: % Residual Activity",1%
same,activity at 25 mg,[5],100%
same,activity at 25 mg,"96 h, pH 6, read-out: % Residual Activity",100%
same,activity at 25 mg,"96 h, pH 6.5, read-out: % Residual Activity",88%
same,activity at 25 mg,[13],78%
same,activity at 25 mg,"96 h, pH 8, read-out: % Residual Activity",49%
same,activity at 10 mg,[3],97%
same,remaining activity at 100 µg/mL,[11],83%
same,remaining activity at 1000 µg/mL,[11],100%
same,remaining activity at 5000 µg/mL,[11],97%
same,remaining activity at 20000 µg/mL,[11],95%
same,remaining activity at 50000 µg/mL,[11],87%
same,remaining activity at 10 µg/mL,read-out: % Residual Activity,80%
C=C(C)C#N [Methacrylonitrile],activity at 10 mg,[2],80%
N#CCCO [β-Hydroxypropionitrile],activity at 10 mg,[2],84%
NC(=O)CCCl [β-Chloropropionamide],activity at 10 mg,[1],71%
C=C(C)C(N)=O [Methacrylamide],activity at 10 mg,[1],79%
C=CC(N)=O [Acrylamide],activity at 10 mg,[1],73%
O=CO [Formic Acid],activity at 10 mg,[3],83%
